Experimental data taken from US20170258871A1, “COMBINED USE OF A TRKA INHIBITOR AND AN EPHA2 INHIBITOR FOR USING IN THE TREATMENT OF SOLID CANCERS, AND METHOD FOR THE PROGNOSIS OF SURVIVAL OF A PATIENT WHO HAS A SOLID CANCER” (UNIVERSITE DES SCIENCES ET TECHNOLOGIES DE LILLE, priority 2014, published 2017).

Tests used:
DU145 cells = experiment: In vitro invasion test (Boyden chamber), DU145; assay type: cell-based
Experimental: (0.5 nM) for a period of 20 hours. The untreated cells represent the control and determine a base invasion of 100%.
FIG. 3: A study of the involvement of EphA2 on the pro-invasive effects of proNGF. The invasion test is carried out on cells MDA-MB-231 (A), DU145 (B) and PC3 (C) transfected with a siRNA against EphA2 (siEphA2), TrkA (siTrkA) or a random siRNA (siCTRL). The transfected siCTRL cells are treated to provide a control and determine a base invasion of 100% (white column). […] The efficacy of the siRNA is measured by the western blot method through the use of specific antibodies against TrkA, EphA2, and actin (load control).
The Boyden Chambers (Transwell®; BD Biosciences; France) were recovered from a biological matrix (type 1 collagen from rats diluted to 400 μg·mL-1 in EMEM-0.1% FCS medium; Millipore). The cells were then seeded with 100,000 cells/well on PET membranes (polyethylene terephtalate; dia.: 10.5 mm; porosity: 8 μm) of Boyden Chambers and held in an EMEM-0.1% FCS medium. […] (0.5 nM) in the lower part. […] The number of cells was estimated after staining with Hoechst 33 258 (1 mM; 30 min; 20° C.) by counting the nuclei thereof using fluorescence microscopy on a total of 5 five randomly chosen fields (lens 10×; λ-excitation: 345 nm; λ-emission: 478 nm; Eclipse Ti) using the ImageJ software. […]

[1] = molecular target: T1, TrkA/sortilin/EphA2 complex (Homo sapiens, UniProt Q99523); experiment: Immunoprecipitation of the TrkA/sortilin/EphA2 complex in cells MDA-MB-231 HA-TrkA; assay type: cell-based; settings: MDA-MB-231 HA-TrkA
T1 construct: expressed in transfected cells
T1 sequence (Q99523 78-831): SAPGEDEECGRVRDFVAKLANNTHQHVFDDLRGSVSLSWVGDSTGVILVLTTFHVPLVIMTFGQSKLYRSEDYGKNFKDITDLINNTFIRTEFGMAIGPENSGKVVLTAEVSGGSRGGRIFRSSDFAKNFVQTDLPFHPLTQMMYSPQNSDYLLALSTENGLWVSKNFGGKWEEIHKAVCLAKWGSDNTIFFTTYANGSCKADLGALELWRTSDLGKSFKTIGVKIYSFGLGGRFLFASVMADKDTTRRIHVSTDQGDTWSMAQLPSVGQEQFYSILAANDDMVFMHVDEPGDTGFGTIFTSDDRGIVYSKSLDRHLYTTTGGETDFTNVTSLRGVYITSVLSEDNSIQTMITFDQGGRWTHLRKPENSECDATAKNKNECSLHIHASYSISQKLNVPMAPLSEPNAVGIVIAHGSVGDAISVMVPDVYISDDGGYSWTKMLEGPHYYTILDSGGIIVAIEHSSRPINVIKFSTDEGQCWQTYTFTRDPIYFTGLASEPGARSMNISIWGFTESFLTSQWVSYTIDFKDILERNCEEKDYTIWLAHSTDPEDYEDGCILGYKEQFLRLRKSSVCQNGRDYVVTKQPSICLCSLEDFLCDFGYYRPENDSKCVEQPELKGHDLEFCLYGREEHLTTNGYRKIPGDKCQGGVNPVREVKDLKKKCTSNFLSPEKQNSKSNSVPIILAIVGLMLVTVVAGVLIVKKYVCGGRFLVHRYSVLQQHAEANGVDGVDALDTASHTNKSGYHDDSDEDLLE
Experimental: A. Cells MDA-MB-231 HA-TrkA were transfected with siTrkA and then treated with proNGF N.C.
D. Cells MDA-MB-231 HA-TrkA were transfected with siEphA2 and then treated with proNGF N.C. (30 min).
The sequences of siRNA used against EphA2 (siEphA2) at 100 pmol for each transfection, and against TrkA (pool of 3 siTrkA 1, 2 and 3) are given in table 1. The transfections of siRNA are produced by means of [sequence]in™ according to the manufacturers instructions (POL409-10, Polyplus transfection, Ozyme, Saint Quentin en Yvelines, France).
The beads (Protein G-agarose, Millipore) were washed twice (12,000 g; 1 min; 4° C.) and recovered in PBS IX (at 50% (v/v)). The protein samples (1 mg) were pre-clarified (1 h; 4° C.; on a wheel (10 rpm)) with 100 μl of beads and 5 μg of isotypical antibodies (mouse IgG2b), centrifuged (12,000 g; 2 min; 4° C.), then the supernatant was incubated (2 h; 4° C.; on a wheel (10 rpm)) with 5 μg of α-HA 12CA5 antibody (Roche). The beads (100 μL at 50% in PBS IX) were added directly to the antibody/protein complex then incubated (2 h; 4° C.; on a wheel (10 rpm)). The antibody/antigen/bead complexes were then centrifuged (12,000 g; 5 min; 4° C.), washed three times (lysis buffer; 4° C.), then disassociated by addition of Laemmli 2× buffer (25 mM Tris-HCl, 0.8% SDS, 4% glycerol, 1% β-mercaptoethanol, pH 6.8) (7 min; 100° C.). […]

Row | Substance | cell invasion under growth factor (DU145 cells; NGF 16 nM or proNGF N.C. 0.5 nM, untreated cells = 100%) | association of TrkA, sortilin and EphA2 (co-immunoprecipitation) under ligand treatment ([1]; 0.5 nM proNGF N.C. or 16 nM NGF, 5 and 30 min) | invasion induced by proNGF in siRNA-transfected cells (DU145 cells; siRNA transfection vs siCTRL, proNGF) | formation of the TrkA/sortilin/EphA2 complex under proNGF with invalidation of a receptor ([1]; proNGF N.C., siRNA transfection or 1 μM neurotensin)
1 | NGF: Nerve Growth Factor; recombinant human β NGF supplied by Scil Proteins | increased cell invasion | induce a delayed association of TrkA and sortilin but does not induce bonding with EphA2 | – | –
2 | siEphA2: siRNA against EphA2, GCAAGGAAGUGGUACUGCUGGACUU (SEQ ID NO: 1) (listed as RNA, chemistry not given here) | – | – | abolished the invasion induced by proNGF | no bond was observed between EphA2 and TrkA
